# Laboratory results published in paper PMC8815882, “Screening the pandemic response box identified benzimidazole carbamates, Olorofim and ravuconazole as promising drug candidates for the treatment of eumycetoma” (PLoS Neglected Tropical Diseases, 2022).
# Like-named read-outs stand apart in the source and are kept apart here.
# Tested on: M. mycetomatis genome strain MM55
# Test: CLSI M38-A2 based in vitro susceptibility screening (XTT or resazurin), growth at fixed concentration
# Type: cell-based, Madurella mycetomatis
# Details: Madurella mycetomatis
# [1] = 25 uM, mean, read-out: Percentage survival at 25um, 25 uM mean
# [2] = 25 uM, replicate A, read-out: Percentage survival at 25um, 25 um A
# [3] = 25 uM, replicate B, read-out: Percentage survival at 25um, 25 uM B
# [4] = 25 uM, replicate C, read-out: Percentage survival at 25um, 25 uM C
# [5] = mean, read-out: Percentage survival at 100um, 100 uM mean
# [6] = replicate (first column), read-out: Percentage survival at 100um, 100 uM A
# [7] = replicate (second column), read-out: Percentage survival at 100um, 100 uM A
# [8] = replicate (third column), read-out: Percentage survival at 100um, 100 uM A
# [9] = 25 uM, mean of replicates, MM55, read-out: Percentage survival at 25um, 25 uM mean
# [10] = 25 uM, replicate A, MM55, read-out: Percentage survival at 25um, 25 um A
# [11] = 25 uM, replicate B, MM55, read-out: Percentage survival at 25um, 25 uM B
# [12] = 25 uM, replicate C, MM55, read-out: Percentage survival at 25um, 25 uM C
# [13] = mean of replicates, MM55, read-out: Percentage survival at 100um, 100 uM mean
# [14] = replicate 1, MM55, read-out: Percentage survival at 100um, 100 uM A
# [15] = replicate 2, MM55, read-out: Percentage survival at 100um, 100 uM A
# [16] = replicate 3, MM55, read-out: Percentage survival at 100um, 100 uM A
# [17] = 25 uM, mean of three, M. mycetomatis MM55, read-out: Percentage survival at 25um, 25 uM mean
# [18] = 25 uM, replicate A, M. mycetomatis MM55, read-out: Percentage survival at 25um, 25 um A
# [19] = 25 uM, replicate B, M. mycetomatis MM55, read-out: Percentage survival at 25um, 25 uM B
# [20] = 25 uM, replicate C, M. mycetomatis MM55, read-out: Percentage survival at 25um, 25 uM C
# [21] = mean of three, M. mycetomatis MM55, read-out: Percentage survival at 100um, 100 uM mean
# [22] = replicate 1, M. mycetomatis MM55, read-out: Percentage survival at 100um, 100 uM A (first replicate column)
# [23] = replicate 2, M. mycetomatis MM55, read-out: Percentage survival at 100um, 100 uM A (second replicate column)
# [24] = replicate 3, M. mycetomatis MM55, read-out: Percentage survival at 100um, 100 uM A (third replicate column)
# [25] = 25 uM, mean of three replicates, read-out: Percentage survival at 25um, 25 uM mean
# [26] = mean of three replicates, read-out: Percentage survival at 100um, 100 uM mean
# [27] = replicate 1, read-out: Percentage survival at 100um, 100 uM A (first replicate column)
# [28] = replicate 2, read-out: Percentage survival at 100um, 100 uM A (second replicate column)
# [29] = replicate 3, read-out: Percentage survival at 100um, 100 uM A (third replicate column)
# [30] = 25 uM, mean of replicates, read-out: Percentage survival at 25um, 25 uM mean
# [31] = mean of replicates, read-out: Percentage survival at 100um, 100 uM mean
# [32] = replicate 1, read-out: Percentage survival at 100um, 100 uM A
# [33] = replicate 2, read-out: Percentage survival at 100um, 100 uM A
# [34] = replicate 3, read-out: Percentage survival at 100um, 100 uM A
# [35] = read-out: Percentage survival at 25um, 25 uM B
# [36] = read-out: Percentage survival at 25um, 25 uM C
# [37] = read-out: Percentage survival at 25um, 25 uM mean
compound,measurement,setting,value
Cc1cc(C)n(O)c(=O)c1 [MMV1782389],activity at 25 µM,[1],81.5%
same,activity at 25 µM,[2],87.4%
same,activity at 25 µM,[3],82.9%
same,activity at 25 µM,[4],74.1%
same,activity at 100 µM,[5],81.6%
same,activity at 100 µM,[6],67.6%
same,activity at 100 µM,[7],78.2%
same,activity at 100 µM,[8],99.1%
CCCCc1ccc(-c2nc(C)c(C(=O)OC)s2)cc1 [MMV1634392],activity at 25 µM,[9],77.2%
same,activity at 25 µM,[10],84.6%
same,activity at 25 µM,[11],81.9%
same,activity at 25 µM,[12],65.1%
same,activity at 100 µM,[13],65.3%
same,activity at 100 µM,[14],48.8%
same,activity at 100 µM,[15],54.8%
same,activity at 100 µM,[16],92.3%
CCCCCCCc1[nH]c2ccccc2c(=O)c1O [MMV1578561],activity at 25 µM,[17],76.2%
same,activity at 25 µM,[18],76.9%
same,activity at 25 µM,[19],79.7%
same,activity at 25 µM,[20],71.9%
same,activity at 100 µM,[21],72.1%
same,activity at 100 µM,[22],73.7%
same,Percent fungal survival at 100 µM,[23],69.3%
same,activity at 100 µM,[24],73.2%
O=C(Nc1nnc(-c2ccccc2)o1)c1ccc(F)cc1 [MMV1578578],activity at 25 µM,[17],24.9%
same,activity at 25 µM,[18],69.5%
same,activity at 25 µM,[19],1.3%
same,activity at 25 µM,[20],3.74%
same,activity at 100 µM,[21],0.7%
same,activity at 100 µM,[22],-1.02%
same,Percent fungal survival at 100 µM,[23],1.69%
same,activity at 100 µM,[24],1.43%
CCOC(=O)N[C@@H]1CC[C@@H]2[C@@H](C1)C[C@H]1C(=O)O[C@H](C)[C@H]1[C@H]2/C=C/c1ccc(-c2cccc(F)c2)cn1 [MMV1593515],activity at 25 µM,[25],69.2%
same,activity at 25 µM,[2],68.2%
same,activity at 25 µM,[3],80.3%
same,activity at 25 µM,[4],59.1%
same,activity at 100 µM,[26],72.9%
same,activity at 100 µM,[27],71.5%
same,Percent fungal survival at 100 µM,[28],65.2%
same,activity at 100 µM,[29],82%
CCC[C@H](NC(=O)[C@@H]1[C@H]2CCC[C@H]2CN1C(=O)[C@@H](NC(=O)[C@@H](NC(=O)c1cnccn1)C1CCCCC1)C(C)(C)C)C(=O)C(=O)NC1CC1 [MMV1580494],activity at 25 µM,[9],85.9%
same,activity at 25 µM,[10],89.9%
same,activity at 25 µM,[11],95.2%
same,activity at 25 µM,[12],72.5%
same,activity at 100 µM,[13],89.5%
same,activity at 100 µM,[14],96.1%
same,activity at 100 µM,[15],101%
same,activity at 100 µM,[16],71.1%
CC1CN(c2ncnc3c2c(-c2ccccc2)cn3-c2ccc(F)cc2)CC(C)O1 (stereo not shown) [MMV093250],activity at 25 µM,[17],63.7%
same,activity at 25 µM,[18],69.5%
same,activity at 25 µM,[19],65.3%
same,activity at 25 µM,[20],56.2%
same,activity at 100 µM,[21],70%
same,activity at 100 µM,[22],65.7%
same,Percent fungal survival at 100 µM,[23],80.7%
same,activity at 100 µM,[24],63.6%
O=C(NO)C1(CS(=O)(=O)c2ccc(Oc3ccc(Cl)cc3)cc2)CCOCC1 [MMV690706],activity at 25 µM,[9],82%
same,activity at 25 µM,[10],85.7%
same,activity at 25 µM,[11],90.9%
same,activity at 25 µM,[12],69.4%
same,activity at 100 µM,[13],68.5%
same,activity at 100 µM,[14],72.4%
same,activity at 100 µM,[15],62.8%
same,activity at 100 µM,[16],70.2%
CCCCc1ccc(-c2cc(C(=O)O)cc(-c3ccc(Cl)cc3)n2)cc1 [MMV1580852],activity at 25 µM,[25],33.8%
same,activity at 25 µM,[2],3.56%
same,activity at 25 µM,[3],69.1%
same,activity at 25 µM,[4],28.7%
same,activity at 100 µM,[26],4.07%
same,activity at 100 µM,[27],5.06%
same,Percent fungal survival at 100 µM,[28],-0.471%
same,activity at 100 µM,[29],7.62%
Oc1ccc(NCc2ccccc2OCc2ccccc2)cc1 [MMV1580504],activity at 25 µM,[25],81.4%
same,activity at 25 µM,[2],86.2%
same,activity at 25 µM,[3],84.4%
same,activity at 25 µM,[4],73.7%
same,activity at 100 µM,[26],8.06%
same,activity at 100 µM,[27],2.17%
same,Percent fungal survival at 100 µM,[28],4.7%
same,activity at 100 µM,[29],17.3%
Fc1ccc2c(/C=C/c3cccnc3)c[nH]c2c1 [MMV1578889],activity at 25 µM,[1],76.9%
same,activity at 25 µM,[2],86.3%
same,activity at 25 µM,[3],56.6%
same,activity at 25 µM,[4],87.7%
same,activity at 100 µM,[5],58.2%
same,activity at 100 µM,[6],83.4%
same,activity at 100 µM,[7],19.8%
same,activity at 100 µM,[8],71.5%
O=C1NC(=O)C(Br)=C1Br [MMV1578554],activity at 25 µM,[30],76.9%
same,activity at 25 µM,[2],80.1%
same,activity at 25 µM,[3],86.3%
same,activity at 25 µM,[4],64.3%
same,activity at 100 µM,[31],43.3%
same,activity at 100 µM,[32],-3.69%
same,activity at 100 µM,[33],60.2%
same,activity at 100 µM,[34],73.5%
CC(C)CCN1C(=O)C(C2=NS(=O)(=O)c3cc(NS(C)(=O)=O)ccc3N2)=C(O)[C@@H]2[C@H]3CC[C@H](C3)[C@@H]21 [MMV1782220],activity at 25 µM,[9],83.6%
same,activity at 25 µM,[10],78.4%
same,activity at 25 µM,[11],83.3%
same,activity at 25 µM,[12],89.2%
same,activity at 100 µM,[13],113%
same,activity at 100 µM,[14],140%
same,activity at 100 µM,[15],71%
same,activity at 100 µM,[16],127%
NC[C@H]1O[C@H](O[C@H]2[C@H](O)[C@@H](O[C@H]3O[C@H](CO)[C@@H](O)[C@H](N)[C@H]3O)[C@H](N)C[C@@H]2N)[C@H](N)C[C@@H]1O [MMV002459],activity at 25 µM,[30],86.6%
same,activity at 25 µM,[2],96.5%
same,activity at 25 µM,[3],69%
same,activity at 25 µM,[4],94.3%
same,activity at 100 µM,[31],63.3%
same,activity at 100 µM,[32],89.3%
same,activity at 100 µM,[33],40%
same,activity at 100 µM,[34],60.6%
CCN(CC)CCCC(C)Nc1ccnc2cc(Cl)ccc12 (stereo not shown) [MMV000008],activity at 25 µM,[2],87.2%
same,activity at 100 µM,[26],62.1%
same,activity at 100 µM,[27],45.5%
same,activity at 100 µM,[28],61%
same,activity at 100 µM,[29],79.8%
same,activity at 25 µM,[35],72.9%
same,activity at 25 µM,[36],80.7%
same,activity at 25 µM,[37],80.3%
C[C@H]1CC[C@]2(NC1)O[C@H]1C[C@H]3[C@@H]4CC[C@H]5C[C@@H](O)CC[C@]5(C)[C@H]4CC[C@]3(C)[C@H]1[C@@H]2C [MMV003069],activity at 25 µM,[2],98.3%
same,activity at 100 µM,[31],85.8%
same,activity at 100 µM,[27],80.2%
same,activity at 100 µM,[28],92.8%
same,activity at 100 µM,[29],84.2%
same,activity at 25 µM,[35],98.8%
same,activity at 25 µM,[36],91.1%
same,activity at 25 µM,[37],96.1%
CC(C)Nc1ncnc2c1cnn2-c1ccc(Cl)cc1 [MMV108465],activity at 25 µM,[30],63.1%
same,activity at 25 µM,[2],53.4%
same,activity at 25 µM,[3],64.9%
same,activity at 25 µM,[4],71.1%
same,activity at 100 µM,[31],22.2%
same,activity at 100 µM,[32],0.471%
same,activity at 100 µM,[33],1.77%
same,activity at 100 µM,[34],64.4%
O=C(O)CCNC(=O)c1ccccc1 [MMV002224],activity at 25 µM,[30],93.9%
same,activity at 25 µM,[2],90.2%
same,activity at 25 µM,[3],96.2%
same,activity at 25 µM,[4],95.4%
same,activity at 100 µM,[31],89.7%
same,activity at 100 µM,[32],96%
same,activity at 100 µM,[33],83.6%
same,activity at 100 µM,[34],89.5%
COc1cc(Cc2cnc(N)nc2N)cc(OC)c1OC [MMV000028],activity at 25 µM,[17],83.8%
same,activity at 25 µM,[18],93.1%
same,activity at 25 µM,[19],86.4%
same,activity at 25 µM,[20],71.8%
same,activity at 100 µM,[21],77.4%
same,activity at 100 µM,[22],78.2%
same,activity at 100 µM,[23],74.4%
same,activity at 100 µM,[24],79.6%
Cc1cc(Nc2ccc(F)cc2)nc(SCc2nc3ccccc3[nH]2)n1 [MMV1582498],activity at 25 µM,[1],92.9%
same,activity at 25 µM,[2],99.7%
same,activity at 25 µM,[3],99%
same,activity at 25 µM,[4],80.1%
same,activity at 100 µM,[5],45%
same,activity at 100 µM,[6],67.6%
same,activity at 100 µM,[7],17.6%
same,activity at 100 µM,[8],49.8%
